Data taken from publication PMC4177008 (Organic & biomolecular chemistry, 2014).
“Also recorded” adds a separate entry of the source.

Key:
[1] = test system: influenza virus A/Udorn/72 strain (H3N2); experiment: MDCK cell-based plaque reduction assay, influenza A/Udorn/72; conditions: for inhibition to influenza virus at 100 μM: at a concentration of 100 μM; for inhibition to influenza virus at 100 μM / anti-influenza inhibitory activity (result in words) / fold improvement of inhibitory activity over HTS hit P114F5: A/Udorn/72 (H3N2); for anti-influenza inhibitory activity (result in words): authors' description of the EC50 data; for fold improvement of inhibitory activity over HTS hit P114F5: compared to P114F5; for EC50: influenza virus A/Udorn/72 strain (H3N2), 50% reduction of plaques in MDCK cells
[2] = test system: Influenza A/PR/8/34 (H1N1); experiment: MDCK cell-based plaque reduction assay, influenza A/PR/8/34; conditions: Influenza A virus, H1N1|PR/8, MDCK
[3] = test system: Influenza A1/Jingfang 86-1(H1N1); experiment: MDCK cell-based plaque reduction assay, influenza A1/Jingfang 86-1; conditions: Influenza A virus
[4] = test system: Influenza A3/Lufang 93-1(H3N2); experiment: MDCK cell-based plaque reduction assay, influenza A3/Lufang 93-1; conditions: Influenza A virus
Influenza B/Shenzhen/747 = experiment: MDCK cell-based plaque reduction assay, influenza B/Shenzhen/747; conditions: Influenza B virus
[5] = test system: Madin-Darby canine kidney (MDCK) cells; experiment: MTT cytotoxicity assay in MDCK cells; format: cell-based; conditions: 24 h, mean ± SD of triplicates
[6] = test system: human embryonic kidney cells (HEK293 cells); experiment: MTT cytotoxicity assay in HEK293 cells; format: cell-based; conditions: HEK 293 cells, 24 h, mean ± SD of triplicates
[7] = test system: human epithelial carcinoma cell line (HeLa cells); experiment: MTT cytotoxicity assay in HeLa cells; format: cell-based; conditions: 24 h, mean ± SD of triplicates
[8] = test system: MDCK cells, HEK293 cells and HeLa cells; experiment: MTT cytotoxicity, three cell lines; format: cell-based
[9] = test system: influenza A/udorn/72 (H3N2); format: cell-based, influenza A virus

Compound: CCOC(=O)N1CCC(Sc2cc(-c3ccccc3)nc3ccccc23)CC1 [Compound 1a, Ethyl 4-((2-phenylquinolin-4-yl)thio)piperidine-1-carboxylate]
- inhibition to influenza virus at 100 μM [1]: did not show any inhibition

Compound: CCOC(=O)N1CCC(Sc2cc(Cl)nc3ccccc23)CC1 [Compound 1b, Ethyl 4-((2-chloroquinolin-4-yl)thio)piperidine-1-carboxylate]
- anti-influenza inhibitory activity (result in words) [1]: moderate inhibitory activities

Compound: CCOC(=O)N1CCC(Sc2ccncc2)CC1 [Compound 1c, Ethyl 4-(pyridin-4-ylthio)piperidine-1-carboxylate]
- inhibition to influenza virus at 100 μM [1]: did not show any inhibition

Compound: CCOC(=O)N1CCC(Sc2ccc(C)cc2)CC1 [Compound 1d, Ethyl 4-(p-tolylthio)piperidine-1-carboxylate]
- anti-influenza inhibitory activity (result in words) [1]: moderate inhibitory activities

Compound: CCOC(=O)N1CCC(Sc2ccc(OC)cc2)CC1 [Compound 1e, Ethyl 4-((4-methoxyphenyl)thio)piperidine-1-carboxylate]
- anti-influenza inhibitory activity (result in words) [1]: moderate inhibitory activities

Compound: CCOC(=O)N1CCC(Sc2cccc3ccccc23)CC1 [Compound 1f, Ethyl 4-(naphthalen-1-ylthio)piperidine-1-carboxylate]
- anti-influenza inhibitory activity (result in words) [1]: moderate inhibitory activities

Compound: CCOC(=O)N1CCC(Oc2ccnc3ccccc23)CC1 [Compound 6a, Ethyl 4-(quinolin-4-yloxy)piperidine-1-carboxylate]
- anti-influenza inhibitory activity (result in words) [1]: good inhibitory activity
- fold improvement of inhibitory activity over HTS hit P114F5 [1]: 6 fold

Compound: CCOC(=O)N1CCC(Nc2ccnc3ccccc23)CC1 [Compound 6b, Ethyl 4-(quinolin-4-ylamino)piperidine-1-carboxylate]
- anti-influenza inhibitory activity (result in words) [1]: moderate inhibitory activity

Compound: CC(C)(C)OC(=O)N1CCC(Oc2ccnc3ccccc23)CC1 [Compound 11e, tert-Butyl 4-(quinolin-4-yloxy)piperidine-1-carboxylate]
- fold improvement of inhibitory activity over HTS hit P114F5 [1]: 100 fold
- EC50 [2]: 0.07 µM
- EC50 [3]: 0.1 µM
- EC50 [4]: 0.06 µM
- EC50 (Influenza B/Shenzhen/747): 0.05 µM
- MDL50 (μM) mean ± SD [5]: 10061.92 ± 235.86 µM
- MDL50 (μM) mean ± SD [6]: 8101.97 ± 473.16 µM
- MDL50 (μM) mean ± SD [7]: 8850.21 ± 406.99 µM
- cytotoxicity (result in words) ([8]; any of the cell lines, up to a concentration of millimolar (mM) range, MTT): did not exhibit cytotoxicity; also recorded: did not observe cytotoxicity
- selectivity index value (SI = MLD50/EC50) ([8]; based on cytotoxicity measured by MTT assays of three cell lines): over 160,000

Compound: c1ccc2c(OC3CCNCC3)ccnc2c1 [Compound 11h, 4-(Piperidin-4-yloxy)quinolone]
- anti-influenza inhibitory activity (result in words) [1]: significantly reduced the activity
- EC50 [1]: > 100 µM

Compound: c1ccc2c(OC3CCOCC3)ccnc2c1 [Compound 11j, 4-((Tetrahydro-2H-pyran-4-yl)oxy)quinolone]
- EC50 [1]: > 100 µM

Compound: CC(C)(C)OC(=O)N[C@@H](Cc1ccccc1)C(=O)N1CCC(Sc2ccnc3ccccc23)CC1 [Compound 12a, (S)-tert-Bbutyl (1-oxo-3-phenyl-1-(4-(quinolin-4-ylthio)piperidin-1-yl)propan-2-yl)carbamate]
- EC50 [1]: 15.5 µM

Compound: CC(C)(C)OC(=O)N[C@@H](CC(N)=O)C(=O)N1CCC(Sc2ccnc3ccccc23)CC1 [Compound 12b, (S)-tert-Butyl (4-amino-1,4-dioxo-1-(4-(quinolin-4-ylthio)piperi-din-1-yl)butan-2-yl)carbamate]
- EC50 [1]: > 100 µM

Compound: CCOC(=O)N1CCC(Sc2ccnc3ccccc23)CC1 [Compound P114F5, ethyl 4-(quinolin-4-ylthio)piperidine-1-carboxylate]
- EC50 [2]: 8.78 µM
- EC50 [3]: 9.05 µM
- EC50 [4]: 11.7 µM
- EC50 (Influenza B/Shenzhen/747): 10.9 µM
- time-of-addition effect [9]: most effective as an inhibitor of influenza virus; also recorded: no significant anti-influenza activities were observed
